In article PMC10743726, “Preclinical Evaluation of a Novel High-Affinity Radioligand [^99mTc]Tc-BQ0413 Targeting Prostate-Specific Membrane Antigen (PSMA)” (International Journal of Molecular Sciences, 2023):

Tests used:
PSMA = details: read-out: Equilibrium Dissociation Constant, KD; cited from earlier work
[1] = test system: PSMA-positive PC3-pip xenografts; assay: Biodistribution in PC3-pip tumor-bearing mice; details: 40 pmol/mouse
Method: All in vivo experiments were carried out on BALB/c nu/nu or NMRI mice purchased from Scanbur A/S (Sollentuna, Sweden). All animal studies were approved by the Ethics Committee for Animal Research in Uppsala (Sweden), following the national legislation on the protection of laboratory animals (permit 5.8.18-00473/2021, approved 26 February 2021). Prostate cancer xenografts expressing PSMA were established in BALB/c nu/nu mice via subcutaneous injection of PC3-pip cell suspension in PBS (10^7 cells/animal in 100 µL). For in vivo specificity control, 10^7 cells/animal PSMA-negative SKOV-3 or PC-3 cells were implanted. […] Four mice per data point were used in in vivo experiments; two mice per data point were used in SPECT/CT (^99mTc-labeled BQ0413) and PET/CT (^68Ga-labeled PSMA-11) imaging experiments.
Each mouse was intravenously injected with 40 pmol of [^99mTc]Tc-BQ0413 (60 kBq; mass of injected compound was adjusted with unlabeled tracer). The mice were euthanized after lethal intraperitoneal injection of ketamine/xylazine followed by exsanguination 1, 3, and 6 h pi. The organs of interest were collected, weighed, and measured for their activity content using the gamma counter. The uptake activity in organs was calculated as the percentage of injected activity per gram (%IA/g) for blood, salivary gland, lungs, liver, spleen, pancreas, stomach, small intestine, kidneys, tumor, muscle, and bone tissue and as %IA for the remaining carcass and the rest of the intestines with content.
Animals were euthanized, organs were collected, and activity uptake was measured according to the protocol described above.

## O=C([O-])CN(CCN(CC(=O)[O-])Cc1cc(CCC(=O)NCCCCCC(=O)NCCCC[C@H](NC(=O)N[C@@H](CCC(=O)O)C(=O)O)C(=O)O)ccc1[O-])Cc1cc(CCC(=O)O)ccc1[O-].[68Ga+3].[OH3+] [[^68Ga]Ga-PSMA-11]
PSMA
  Kd: 0.5 ± 0.2 nM
[1]; 1 h pi
  Activity in GI tract (with content): 1.6 ± 0.3 %IA/sample
  Tumor-to-blood ratio: 26 ± 9
  Tumor-to-bone ratio: 34 ± 7
  Tumor-to-kidneys ratio: 0.09 ± 0.02
  Tumor-to-liver ratio: 30 ± 14
  Tumor-to-lungs ratio: 7 ± 2
  Tumor-to-muscle ratio: 38 ± 11
  Tumor-to-pancreas ratio: 15 ± 3
  Tumor-to-salivary gland ratio: 5 ± 1
  Tumor-to-small intestine ratio: 42 ± 14
  Tumor-to-spleen ratio: 0.7 ± 0.2
  Tumor-to-stomach ratio: 29 ± 11
  Uptake in blood: 0.8 ± 0.1 %IA/g
  Uptake in bone: 0.60 ± 0.06 %IA/g
  Uptake in kidneys: 226 ± 40 %IA/g
  Uptake in liver: 0.7 ± 0.2 %IA/g
  Uptake in lungs: 3.2 ± 0.6 %IA/g
  Uptake in muscle: 0.54 ± 0.08 %IA/g
  Uptake in pancreas: 1.3 ± 0.2 %IA/g
  Uptake in salivary gland: 4.4 ± 0.8 %IA/g
  Uptake in small intestine: 0.5 ± 0.1 %IA/g
  Uptake in spleen: 28 ± 4 %IA/g
  Uptake in stomach: 0.8 ± 0.3 %IA/g
  Uptake in tumor: 20 ± 3 %IA/g
[1]; 3 h pi
  Uptake in tumor: 20 ± 3 %IA/g

## [^177Lu]Lu-PSMA-617
PSMA
  Kd: 0.24 nM
